Data published in patent US10221163B2 (priority 2015, dated 2019).

Columns and labels:
[1] = test system: Pseudomonas aeruginosa efflux+ (MB9798), IMP-1; type: cell-based; conditions: concentration restoring susceptibility to imipenem at 2 μg/mL in the presence of a class A, C, D serine β-lactamase inhibitor closely related to relebactam
From the text: (§1) The strain background was Pseudomonas aeruginosa PAO1.
(§2) The strain set was then used as a pair to determine the effect of metallo-β-lactamase inhibitors of Formula I on the MIC of imipenem and/or ceftazidime. A fixed concentration of antibiotic was included in standard microbroth MIC tests, usually at the CLSI (Clinical and Laboratory Standards Institute) breakpoint concentration. A fixed amount of a class A/C beta-lactamase inhibitor was also included to inhibit the resident Pseudomonas AmpC enzyme. A serial titration of the metallo-β-lactamase inhibitor was included and the concentration of metallo-β-lactamase inhibitor which restores susceptibility of the strain to the included antibiotic was recorded. That concentration of metallo-β-lactamase inhibitor was then compared between the two strains to determine the fold difference between the efflux+ (MB9798) and efflux− (MB9799) strains. This was taken as an indication of the extent to which the MBLi is subject to efflux.

[2] = test system: Pseudomonas aeruginosa efflux− (MB9799), IMP-1; type: cell-based; conditions: concentration restoring susceptibility to imipenem at 2 μg/mL in the presence of a class A, C, D serine β-lactamase inhibitor closely related to relebactam
From the text: as §1, §2

NDM-1 = NDM-1 (Klebsiella pneumoniae, UniProt C7C422); assay: biochemical; type: biochemical; conditions: fluorescence assay, CCF2-FA substrate, 1 pM enzyme, 2 hours at 25° C.; read-out: NDM-1 IC50
Procedure: (§3) Enzyme Activity: Determination of IC50
(§4) The Class B enzyme activities were measured in the presence of the test inhibitor in a fluorescence assay against a commercially available substrate consisting of a cephalosporin core linking 7-hydroxycoumarin to fluorescein (CCF2-FA). […] In a 384-well microplate, the test inhibitor was incubated with the metallo-β-lactamase enzyme and the substrate for 2 hours at 25° C. […] The IC50 value was determined from semi-logarithmic plots of enzyme inhibition versus inhibitor concentration, with a curve generated using a 4-parameter fit.

IMP-1 = IMP-1 (Serratia marcescens, UniProt P52699); assay: biochemical; type: biochemical; conditions: fluorescence assay, CCF2-FA substrate, 2 pM enzyme, 2 hours at 25° C.; read-out: IMP-1 IC50
Procedure: as §3, §4

[3] = test system: Serratia marcescens expressing IMP-1 (CL5741); type: cell-based; conditions: for Serratia marcescens expressing IMP-1 (CL5741) MITC95: with imipenem 1 μg/ml, 95% inhibition of bacterial growth; for Serratia marcescens MITC95: IMP-1 strain CL5741, with imipenem 1 μg/ml, 95% inhibition of growth
Procedure: (§5) Antibiotic Potentiation Activity: Determination of Synergistic Concentration
(§6) The bacterial strains tested included the clinical strains Escherichia coli expressing NDM-1 (CLB30005, CLB30016), Serratia marcescens expressing IMP-1 (CL5741), and Klebsiella pneumoniae expressing VIM-1 (IHMA599644). Inhibitor activity was measured in the presence and absence of imipenem in a 384-well microplate.
(§7) The clinical strains CLB30016, CL5741 and IHMA599644 were grown on trypticase soy agar containing 5% sheep's blood. The bacteria on agar plates were incubated at 35° C. with humidity overnight. The following day, individual colonies from each clinical strain were picked and resuspended in 5 ml saline to attain an OD600 of […], for CLB30016, CL5741 and IHMA599644, respectively. These were further diluted 1:100 into 1.1×CAMHB and used to inoculate the test wells as described below.
(§8) Imipenem in 10 mM 3-(N-morpholino)propanesulfonic acid (MOPS, pH 7) was stored in single use aliquots at −80° C. […] On the day of the assay, 4 μl of antibiotic was added to 45 ul of bacteria followed by 1 μl of test compound and mixed by pipetting and with an orbital shaker. The concentration of antibiotic used in the assay was 1 μg/ml. Microplates were covered and incubated at 35° C. for 22 hours to 24 hours. At the end of the incubation, absorbance was determined using a spectrophotometer.

[4] = test system: Escherichia coli expressing NDM-1 (CLB30005, CLB30016); type: cell-based; conditions: with imipenem 1 μg/ml; for Escherichia coli expressing NDM-1 (CLB30016) MITC95: 95% inhibition of bacterial growth; for Escherichia coli MITC95: NDM-1 strain, 95% inhibition of growth
Procedure: as §5, §6, §7, §8

[5] = test system: Klebsiella pneumoniae expressing VIM-1 (IHMA599644); type: cell-based; conditions: for Klebsiella pneumoniae expressing VIM-1 (IHMA599644) MITC95: with imipenem 1 μg/ml, 95% inhibition of bacterial growth; for Klebsiella pneumoniae MITC95: VIM-1 strain IHMA599644, with imipenem 1 μg/ml, 95% inhibition of growth
Procedure: as §5, §6, §7, §8

Sequence of IMP-1 (P52699 whole entry, looked up, species assumed): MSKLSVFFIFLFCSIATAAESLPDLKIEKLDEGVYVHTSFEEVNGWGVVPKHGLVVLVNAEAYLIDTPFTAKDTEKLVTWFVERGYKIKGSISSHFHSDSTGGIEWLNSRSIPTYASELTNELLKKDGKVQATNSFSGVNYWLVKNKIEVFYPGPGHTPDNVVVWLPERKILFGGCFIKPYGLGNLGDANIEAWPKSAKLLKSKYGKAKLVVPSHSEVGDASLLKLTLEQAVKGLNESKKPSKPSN
Sequence of NDM-1 (C7C422 whole entry, looked up, species assumed): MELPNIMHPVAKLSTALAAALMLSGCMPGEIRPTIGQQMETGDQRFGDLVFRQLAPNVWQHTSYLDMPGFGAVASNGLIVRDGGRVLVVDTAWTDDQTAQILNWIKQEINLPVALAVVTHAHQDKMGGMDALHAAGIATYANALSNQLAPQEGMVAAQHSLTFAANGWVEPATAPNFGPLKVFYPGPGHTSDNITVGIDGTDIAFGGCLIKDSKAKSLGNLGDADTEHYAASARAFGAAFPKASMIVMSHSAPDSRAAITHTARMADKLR

Compound | P. aeruginosa expressing IMP-1, efflux + (MB9798) MITC95 [1] [µM] | P. aeruginosa expressing IMP-1, efflux − (MB9799) MITC95 [2] [µM] | IC50 (NDM-1) [nM] | IC50 (IMP-1) [nM] | Serratia marcescens expressing IMP-1 (CL5741) MITC95 [3] [µM] | Escherichia coli expressing NDM-1 (CLB30016) MITC95 [4] [µM] | Klebsiella pneumoniae expressing VIM-1 (IHMA599644) MITC95 [5] [µM] | Serratia marcescens MITC95 [3] [µM] | Escherichia coli MITC95 [4] [µM] | Klebsiella pneumoniae MITC95 [5] [µM]
Nc1nc2c(-c3ccc(S(=O)(=O)NCCN4CCC4)c(S(N)(=O)=O)c3-c3nnn[nH]3)cccc2s1 [Example 21, 4-(2-amino-1,3-benzothiazol-4-yl)-N1-(2-azetidin-1-ylethyl)-3-(1H-tetrazol-5-yl)benzene-1,2-disulfonamide] | 1.563 | 1.563 | 0.0642 | 0.383 | 3.125 | 6.25 | 6.25 | – | – | –
Nc1nc2c(-c3ccc(S(=O)(=O)NCCN4CCCCC4=O)c(S(N)(=O)=O)c3-c3nnn[nH]3)cccc2s1 [Example 33, 4-(2-amino-1,3-benzothiazol-4-yl)-N1-[2-(2-oxopiperidin-1-yl)ethyl]-3-(1H-tetrazol-5-yl)benzene-1,2-disulfonamide] | 12.5 | 3.125 | 0.0731 | 0.275 | 6.25 | 25 | 25 | – | – | –
CS(=O)(=O)C1CCN(S(=O)(=O)c2ccc(-c3cccc4sc(N)nc34)c(-c3nnn[nH]3)c2S(N)(=O)=O)C1 (centres unmarked) [Example 45, 3-(2-amino-1,3-benzothiazol-4-yl)-6-{[3-(methylsulfonyl)pyrrolidin-1-yl]sulfonyl}-2-(1H-tetrazol-5-yl)benzenesulfonamide] | 25 | 3.125 | – | 1.65 | 6.25 | 50 | 25 | – | – | –
Nc1nc2c(-c3ccc(S(=O)(=O)N[C@H]4C[C@H](N)C4)c(S(N)(=O)=O)c3-c3nnn[nH]3)cccc2s1 [Example 71, 4-(2-amino-1,3-benzothiazol-4-yl)-N^1-(trans-3-aminocyclobutyl)-3-(1H-tetrazol-5-yl)benzene-1,2-disulfonamide] | 1.563 | 1.563 | 0.0612 | – | 3.125 | 1.563 | 3.125 | – | – | –
Nc1nc2c(-c3ccc(S(=O)(=O)NCC4(N)CCOC4)c(S(N)(=O)=O)c3-c3nnn[nH]3)cccc2s1.O=CO (centres unmarked) [Example 114, 3-((4-(2-aminobenzo[d]thiazol-4-yl)-2-sulfamoyl-3-(1H-tetrazol-5-yl)phenylsulfonamido)methyl)tetrahydrofuran-3-aminium formate] | 3.125 | 3.125 | 0.0649 | – | 3.125 | 3.125 | 6.25 | – | – | –
Nc1nc2c(-c3ccc(S(=O)(=O)NC[C@]4(F)CCCNC4)c(S(N)(=O)=O)c3-c3nnn[nH]3)cccc2s1.O=CO [Example 122, (S)-3-(((4-(2-aminobenzo[d]thiazol-4-yl)-2-sulfamoyl-3-(1H-tetrazol-5-yl)phenyl)sulfonamido)methyl)-3-fluoropiperidin-1-ium formate] | 3.125 | 1.563 | 0.0329 | 0.282 | 1.563 | 1.563 | 3.125 | – | – | –
CN(C)C(=O)c1ccccc1-c1ccc(S(=O)(=O)N[C@@H]2CCNC2)c(S(N)(=O)=O)c1-c1nnn[nH]1 [Example 129, (R)-N,N-dimethyl-4′-(N-(pyrrolidin-3-yl)sulfamoyl)-3′-sulfamoyl-2′-(1H-tetrazol-5-yl)-[1,1′-biphenyl]-2-carboxamide] | 12.5 | 3.125 | 0.279 | 9.07 | 6.25 | 6.25 | 12.5 | – | – | –
Nc1nc2c(-c3ccc(S(=O)(=O)N[C@@H]4CCNC4)c(S(N)(=O)=O)c3-c3nnn[nH]3)cc(F)cc2[nH]1 [Example 181, (R)-4-(2-amino-6-fluoro-1H-benzo[d]imidazol-4-yl)-N^1-(pyrrolidin-3-yl)-3-(1H-tetrazol-5-yl)benzene-1,2-disulfonamide] | 0.3906 | 0.7813 | 0.0372 | 0.273 | 0.7813 | 0.3906 | 1.563 | – | – | –
N=C(N)c1nc2c(-c3ccc(S(N)(=O)=O)c(S(N)(=O)=O)c3-c3nn[nH]n3)cccc2s1 [Example 192, 4-(3,4-disulfamoyl-2-(2H-tetrazol-5-yl)phenyl)benzo[d]thiazole-2-carboximidamide] | 1.563 | 0.7813 | 0.274 | 0.699 | 0.7813 | 1.563 | 1.563 | – | – | –
Nc1ccc(-c2ccc(S(=O)(=O)NCCc3c[nH]cn3)c(S(N)(=O)=O)c2-c2nn[nH]n2)cn1 [Example 217, N^1-(2-(1H-imidazol-4-yl)ethyl)-4-(6-aminopyridin-3-yl)-3-(2H-tetrazol-5-yl)benzene-1,2-disulfonamide] | 12.5 | 1.563 | 0.447 | – | 1.563 | 0.3906 | 3.125 | – | – | –
C[N+]1(C)CC(NS(=O)(=O)c2ccc(-c3cccc4[nH]c(N)nc34)c(-c3nn[nH]n3)c2S(N)(=O)=O)C1.O=C([O-])O [Example 245, 3-(4-(2-Amino-1H-benzo[d]imidazol-4-yl)-2-sulfamoyl-3-(2H-tetrazol-5-yl)phenylsulfonamido)-1,1-dimethylazetidin-1-ium hydrogencarbonate] | 1.563 | 1.563 | – | – | – | – | – | 1.563 | 0.7813 | 3.125
Nc1ncc(-c2ccc(S(=O)(=O)N[C@@H]3CCNC3)c(S(N)(=O)=O)c2-c2nn[nH]n2)s1 [Example 284] | 0.7813 | 0.7813 | – | 0.411 | – | – | – | 0.7813 | 1.563 | 1.563
